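Step 1: Grow cells in 96-well plates. Step 2: Expose to compound for 48 hours at 5 concentrations. Step 3: Interpolate endpoints linearly; if unreached, use highest concentration. Abbreviation: GI50, concentration required for 50% inhibition of growth.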 Calls of active or inactive are those of the source. Cut-off read from the data, not from the text of the source: active = GI50 up to about 1.1 µM and inactive = higher. Square brackets hold non-standard residues; d marks the D form. Peptide text beside a SMILES is read from it. * marks the point of attachment. Bn2Val = CC(C)[C@@H](C(=O)*)N(Cc1ccccc1)Cc1ccccc1; NH(3,4-diMeO-benzyl) = COc1ccc(CN*)cc1OC; NMeV = CN[C@H](C(=O)O)C(C)C; dNMeA = CN[C@H](C)C(=O)O
Columns and labels:
Test in all cases: NCI tumour cell line growth inhibition, 48 h
[1] = tested on: OVCAR-8
[2] = tested on: OVCAR-5
[3] = tested on: SK-OV-3
[4] = tested on: UO-31
[5] = tested on: SNB-19
[6] = tested on: HL-60
[7] = tested on: A549
[8] = tested on: MDA-MB-231
[9] = tested on: TK-10
[10] = tested on: M14
[11] = tested on: HOP-62
[12] = tested on: SN12C
[13] = tested on: SK-MEL-2
[14] = tested on: NCI-H522
[15] = tested on: PC-3
[16] = tested on: 786-0
[17] = tested on: MCF7
[18] = tested on: RPMI-8226
[19] = tested on: HT-29
[20] = tested on: DMS-273

Row | Compound | GI50 [1] | GI50 [2] | GI50 [3] | GI50 [4] | GI50 [5] | GI50 [6] | GI50 [7] | GI50 [8] | GI50 [9] | GI50 [10] | GI50 [11] | GI50 [12] | GI50 [13] | GI50 [14] | GI50 [15] | GI50 [16] | GI50 [17] | GI50 [18] | GI50 [19] | GI50 [20]
1 | CC12CCC(C1)C(C)(C)C2OC(=O)c1ccccc1C(=O)O (stereo not drawn) | > 100 µM (inactive) | > 100 µM (inactive) | > 100 µM (inactive) | > 100 µM (inactive) | > 100 µM (inactive) | > 100 µM (inactive) | > 100 µM (inactive) | > 100 µM (inactive) | > 100 µM (inactive) | > 100 µM (inactive) | 34.7 µM (inactive) | > 100 µM (inactive) | > 100 µM (inactive) | > 100 µM (inactive) | > 100 µM (inactive) | > 100 µM (inactive) | > 100 µM (inactive) | > 100 µM (inactive) | > 100 µM (inactive) | 
2 | Cn1c(CC(O)c2nc3ccccc3n2C)nc2ccccc21 (stereo not drawn) | > 27 µM (inactive) | > 59.7 µM (inactive) | > 30.4 µM (inactive) | > 6.37 µM (inactive) | > 36.6 µM (inactive) | 0.413 µM (active) | > 56.6 µM (inactive) | > 34.8 µM (inactive) | > 25.1 µM (inactive) | > 29.2 µM (inactive) | > 12.3 µM (inactive) | > 36 µM (inactive) | > 31.3 µM (inactive) | > 6.1 µM (inactive) | > 29.2 µM (inactive) | > 44.6 µM (inactive) | > 15.9 µM (inactive) | > 11.5 µM (inactive) | > 32.8 µM (inactive) | 
3 | S=C(N/N=C/c1ccco1)NC12CC3CC(CC(C3)C1)C2 | > 100 µM (inactive) | > 100 µM (inactive) | > 100 µM (inactive) | > 100 µM (inactive) | > 100 µM (inactive) |  | > 100 µM (inactive) |  | 49.5 µM (inactive) | > 100 µM (inactive) | > 100 µM (inactive) | > 100 µM (inactive) | > 100 µM (inactive) | 36.7 µM (inactive) |  | 62.7 µM (inactive) |  |  | 31.4 µM (inactive) | 6.05 µM (inactive)
4 | Cc1ccc(S(=O)(=O)OCC23CCC(CC2)C2CC23)cc1 (stereo not drawn) | 59.3 µM (inactive) | > 100 µM (inactive) | > 100 µM (inactive) | 34.4 µM (inactive) | 96.6 µM (inactive) | 17.4 µM (inactive) | 57.4 µM (inactive) |  | > 100 µM (inactive) | 92 µM (inactive) | 48.3 µM (inactive) | 45.4 µM (inactive) |  |  |  | 61.2 µM (inactive) |  | 25.9 µM (inactive) | 31.5 µM (inactive) | 30.1 µM (inactive)
5 | O=C(O)C1=C(C(=O)Nc2ccc(NC(=O)C3=C(C(=O)O)C4C=CC3C4)cc2)C2C=CC1C2 | > 100 µM (inactive) | > 100 µM (inactive) | > 100 µM (inactive) | > 100 µM (inactive) | > 100 µM (inactive) | > 100 µM (inactive) | > 100 µM (inactive) |  | > 100 µM (inactive) | > 100 µM (inactive) | > 100 µM (inactive) | > 100 µM (inactive) | 69.7 µM (inactive) |  |  | > 100 µM (inactive) |  | > 100 µM (inactive) | > 100 µM (inactive) | > 100 µM (inactive)
6 | C=C1C(C2(C)C=CC(=O)OC3(C)COC(=O)CC32)C(OC=O)C(OC(=O)C(O)C(C)CC)C2(C)C(c3ccoc3)CC(OC(C)=O)C12O (stereo not drawn) | > 100 µM (inactive) | > 100 µM (inactive) | > 100 µM (inactive) | 67.3 µM (inactive) | > 100 µM (inactive) | 2.69 µM (inactive) | > 100 µM (inactive) | > 100 µM (inactive) | > 100 µM (inactive) | 38.8 µM (inactive) | > 100 µM (inactive) | > 100 µM (inactive) | 64.3 µM (inactive) | > 100 µM (inactive) | 39.2 µM (inactive) | > 100 µM (inactive) | > 100 µM (inactive) | > 100 µM (inactive) | 32.8 µM (inactive) | 
7 | Oc1ccc(-c2c3ccccc3c(-c3ccc(OCCBr)cc3)c3ccccc23)cc1 | 22 µM (inactive) | 27.1 µM (inactive) | 52.7 µM (inactive) | 67.6 µM (inactive) | 29.4 µM (inactive) | 47.5 µM (inactive) | 28.4 µM (inactive) | 23.6 µM (inactive) | 34.5 µM (inactive) | 21 µM (inactive) | 24 µM (inactive) | 22.1 µM (inactive) | 22.2 µM (inactive) | 35 µM (inactive) | 27.4 µM (inactive) | 21.9 µM (inactive) | 14.4 µM (inactive) | 31.1 µM (inactive) | 19.6 µM (inactive) | 
8 | COc1cc([C@H]2c3cc4c(cc3[C@H](NCc3ccc([N+](=O)[O-])cc3)C3COC(=O)[C@H]32)OCO4)cc(OC)c1O (stereo partly drawn) | 1.63 µM (inactive) | 2.89 µM (inactive) | 2.24 µM (inactive) | 1.79 µM (inactive) | 1.01 µM (active) | 1.02 µM (active) | 0.213 µM (active) |  | 1.96 µM (inactive) | 1.97 µM (inactive) | 0.26 µM (active) | 0.807 µM (active) | 4.38 µM (inactive) |  |  | 0.877 µM (active) |  | 0.938 µM (active) | 2.17 µM (inactive) | 0.661 µM (active)
9 | O=C(CN(c1ccc(S(=O)(=O)O)cc1)c1ccc(S(=O)(=O)O)cc1)Nn1cnc2ccc(S(=O)(=O)N(c3ccc(S(=O)(=O)O)cc3)c3ccc(S(=O)(=O)O)cc3)cc2c1=O | > 100 µM (inactive) | > 100 µM (inactive) | > 100 µM (inactive) | > 100 µM (inactive) | > 100 µM (inactive) | > 100 µM (inactive) | > 100 µM (inactive) | > 100 µM (inactive) | > 100 µM (inactive) | > 100 µM (inactive) | > 100 µM (inactive) | > 100 µM (inactive) | > 100 µM (inactive) | > 100 µM (inactive) | > 100 µM (inactive) | > 100 µM (inactive) | > 100 µM (inactive) | > 100 µM (inactive) | > 100 µM (inactive) | 
10 | COc1cccc(NC(=O)/C(Cc2nc3ccccc3nc2C)=N/NC(=O)C[n+]2ccccc2)c1 | > 100 µM (inactive) | > 100 µM (inactive) | > 100 µM (inactive) | > 100 µM (inactive) | > 100 µM (inactive) | > 100 µM (inactive) | > 100 µM (inactive) |  | > 100 µM (inactive) | > 100 µM (inactive) | > 100 µM (inactive) | > 100 µM (inactive) | > 100 µM (inactive) |  |  | > 100 µM (inactive) |  | 26.5 µM (inactive) | > 100 µM (inactive) | 63.4 µM (inactive)
11 | COc1cc(C2c3cc4c(cc3OC3(OC)COC(=O)C23)OCO4)cc(OC)c1OC(C)=O (stereo not drawn) | 2.52 µM (inactive) | 4.6 µM (inactive) | 1.66 µM (inactive) | 6.28 µM (inactive) | 5.94 µM (inactive) | 1.23 µM (inactive) | 1.54 µM (inactive) | 2.9 µM (inactive) | 19.3 µM (inactive) | 1.66 µM (inactive) | 0.8 µM (active) | 3.93 µM (inactive) | 1.84 µM (inactive) | 0.263 µM (active) | 0.429 µM (active) | 1.21 µM (inactive) | 1.07 µM (active) | 1.81 µM (inactive) | 2.47 µM (inactive) | 
12 | C/C(CC(=O)Nc1ccc(Cl)c(Cl)c1)=N/NC(=O)C[N+](C)(C)C | > 100 µM (inactive) | > 100 µM (inactive) |  | > 100 µM (inactive) | > 100 µM (inactive) | 44 µM (inactive) | > 100 µM (inactive) |  | > 100 µM (inactive) | > 100 µM (inactive) | > 100 µM (inactive) | > 100 µM (inactive) | > 100 µM (inactive) |  |  | 56.5 µM (inactive) |  | 25.8 µM (inactive) | > 100 µM (inactive) | 38.8 µM (inactive)
13 | CCN(CC)C(=O)CC12CCCCC1=Nc1ccccc12 (stereo not drawn) | > 100 µM (inactive) | > 100 µM (inactive) | > 100 µM (inactive) |  |  | > 100 µM (inactive) | > 100 µM (inactive) |  | > 100 µM (inactive) | > 100 µM (inactive) | > 100 µM (inactive) |  | > 100 µM (inactive) |  |  | > 100 µM (inactive) |  | > 100 µM (inactive) | > 100 µM (inactive) | > 100 µM (inactive)
14 | CC1C2Cc3ccc(O)cc3C1(C)CCN2C (stereo not drawn) | > 100 µM (inactive) | > 100 µM (inactive) | > 100 µM (inactive) | > 100 µM (inactive) | > 100 µM (inactive) | > 100 µM (inactive) | > 100 µM (inactive) | > 100 µM (inactive) | > 100 µM (inactive) | > 100 µM (inactive) | > 100 µM (inactive) | > 100 µM (inactive) | > 100 µM (inactive) | > 100 µM (inactive) | > 100 µM (inactive) | > 100 µM (inactive) | > 100 µM (inactive) | > 100 µM (inactive) | > 100 µM (inactive) | 
15 | COc1ccc(CNC(=O)[C@@H](C)N(C)C(=O)[C@@H]2CCCN2C(=O)[C@H](C(C)C)N(C)C(=O)[C@@H](NC(=O)[C@H](C(C)C)N(Cc2ccccc2)Cc2ccccc2)C(C)C)cc1OC (Bn2Val-V[NMeV]P[dNMeA]-{NH(3,4-diMeO-benzyl)}) | 14.1 µM (inactive) | 8.2 µM (inactive) | 12.8 µM (inactive) | > 100 µM (inactive) | 7.48 µM (inactive) | 1.8 µM (inactive) | 5.85 µM (inactive) | 8.15 µM (inactive) | 11.7 µM (inactive) | 6.92 µM (inactive) | 8 µM (inactive) | 8.13 µM (inactive) | 7.4 µM (inactive) | 3.19 µM (inactive) | 3.61 µM (inactive) | 8.97 µM (inactive) | 4.33 µM (inactive) | 2.66 µM (inactive) | 5.4 µM (inactive) | 
